The record followed here is patent publication US9492471B2, “Methods of treating a disease or disorder associated with Bruton'S Tyrosine Kinase” (Celgene Avilomics Research, Inc., priority 2013, dated 2016).

The nature of one data set: Environmental stability. The data set is classed as physicochemical.
The subject of the next data set is patients with CLL. The experiment in a line: Compound 1 besylate monotherapy in CLL patients. The data set is classed as in vivo, human.
[1] abbreviates: monotherapy, as of Sep. 11, 2012.

The structures appear in SMILES notation.

`C=CC(=O)Nc1cccc(Nc2nc(Nc3ccc(OCCOC)cc3)ncc2F)c1.O=S(=O)(O)c1ccccc1` [N-(3-(5-fluoro-2-(4-(2-methoxyethoxy)phenylamino)pyrimidin-4-ylamino)phenyl)acrylamide benzenesulfonic acid salt]: in the data set “Environmental stability”, the “environmental instabilities (heat, acid, base)” value was “no environmental instabilities”. Moreover, in the data set with patients with CLL (setting [1]), the “patients with CLL with stable disease continuing on treatment” value is recorded as 35 out of 43, the “patients with early increases in absolute lymphocyte counts (ALC)” value is recorded as 28 of 33 and the “patients with reductions in lymph node size” value is reported as 15 of 23.

Consider `C=CC(=O)Nc1cccc(Nc2nc(Nc3ccc(OCCOC)cc3)ncc2F)c1` [Compound 1, N-(3-(5-fluoro-2-(4-(2-methoxyethoxy)phenylamino)pyrimidin-4-ylamino)phenyl)acrylamide], for which the “maximum tolerated dose (MTD)” value in the data set on patients with CLL (single agent, up to 750 mg PO QD) was “has not yet been reached”.
